Measurements: patent publication US12054495B2, “Substituted macrocyclic compounds and related methods of treatment” (Alkermes, Inc., priority 2019, dated 2024)

Tested on: MDR1
Experiment: MDCK-MDR1 permeability assay
Type: in vitro ADME
Details: dog; for Papp A→B at 2 h, 3 μM: MDCK-MDR1, MDCK-MDR1 cells, apical to basolateral, 3 μM test compound, 2 hours at 37 degrees C; for efflux ratio at 2 h, 3 μM: MDCK-MDR1, Papp (basolateral to apical) divided by Papp (apical to basolateral), MDCK-MDR1 cells, read-out: Efflux ratio (ER)
Outline: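 Bidirectional transport across MDCK-MDR1 monolayers with test compound at 3 μM in HBSS, Lucifer Yellow 100 μM co-dosed as integrity marker; 2 h at 37 °C, donor and receiver quantified by LC-MS/MS. Papp = dQ/dt × 1/(A×C0); efflux ratio = Papp(B→A)/Papp(A→B), ER>2 taken as active transport.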

Papp A→B at 2 h, 3 μM [×10⁻⁶ cm/s] | efflux ratio at 2 h, 3 μM | Structure (SMILES)
0.72 | 36 | CS(=O)(=O)N[C@@H]1CCCN2C(=O)COc3cccc(F)c3[C@H]3CC[C@H](CC3)OC[C@H]12 (racemic) [Compound 49]
5.9 | 4 | COC(=O)N1CCC[C@H](NS(C)(=O)=O)[C@@H]1CO[C@H]1CC[C@@H](c2ccccc2)CC1 [methyl (2R,3S)-3-((methylsulfonyl)amino)-2-(((cis-4-phenylcyclohexyl)oxy)methyl)-piperidine-1-carboxylate, reference compound]
